Experimental data as given in patent US20160355782A1, “METHOD FOR ENHANCING DIFFERENTIATION OF DOPAMINERGIC NEURONS” (Buddhist Tzu Chi Medical Foundation, priority 2015, published 2016).

Tests used:
[1] = tested on: rat TH promoter; test: Chromatin immuno-precipitation (ChIP) at the TH promoter in VM precursor cultures; type: cell-based
Method: VM precursor cultures were treated with 1 μM UCN for about 1 to 2 days. VM cells for ChIP from rat embryos, the pregnant rats on day 12.5 of gestation were intra-peritoneally injected with saline as control or 10 μg/kg UCN as treatment every 24 h for 3 days before sacrifice. The ventral mesencephalon from E15.5 embryos was dissected. Cells were cross-linked with 1% formaldehyde, and stored at −80° C. before use.
Chromatin immuno-precipitation (ChIP) assays were performed using SimpleChIP® Enzymatic Chromatin IP kit (Cell Signaling Technology, Beverly, Mass.) by the instruction of the kit. Briefly, cross-linked chromatin in the cells was enzymatic digested to generate fragments with a length of approximately 150-900 bp (1 to 5 nucleosomes). The chromatin was subjected to immuno-precipitation using the following antibodies: anti-Nurr1 (Santa Cruz), anti-acetyl histone H3 (Ac-H3), anti-HDAC1, anti-CoREST (all from Upstate Biotechnology), anti-MeCP2 (Chemicon,), anti-Foxa2 (Cell signaling Technology), anti-Pitx3, and IgG (both from Abcam). Immuno-precipitated DNA fragments were collected by protein G magnetic beads. DNA/protein complexes were eluted from the beads and reverse cross-linked at 65° C. for 2 h in the presence of proteinase K. Purified DNA were subjected to real-time PCR using primers specific to rat TH promoter loci (referring to Table 2). The abundance of the immuno-precipitated DNA in a sample was normalized to the amount of signal in the input DNA. The values of the control samples were set to 1.0.

[2] = tested on: TH promoter in SH-SY5Y cells; test: TH promoter assay (pTH6.0-GL3 luciferase) in SH-SY5Y cells; type: cell-based, human; details: 24 hours; for elicited TH promoter activity on forced MeCP2 or CoREST expression / elicited TH promoter activity on co-transfection with HDAC1: 1 μM UCN or 1.25 mM SB; for elicited TH promoter activity on co-transfection with HDAC1: pK7-HDAC1 co-transfection
Text: The luciferase reporter vector pTH6.0-GL3 constructed by engineering the 6.0 kb upstream sequences of the rat TH (TH6.0) gene into pGL3 was kindly provided by Dr. Kwang-Soo Kim (Harvard Medical School, Belmont, Mass.). Vector expressing Nurr1 (mouse) was constructed by inserting the respective cDNA into pAAV-MCS vector (pAAV-Nurr1), in which the cloned gene is designed to be expressed under the control of the cytomegalovirus (CMV) immediate-early promoter. pTH6.0-GL3 alone or combined with pAAV-Nurr1 were transfected into a human neuro-blastoma SH-SY5Y cell line or cortical NPCs, respectively, using Lipofectamine 2000 (Invitrogen) according to the protocol of the manufacturer. For determine the effect of MeCP2-CoREST-HDAC1 repressor complex on TH promoter activity, the SH-SY5Y cells were double transfected with pTH6.0-GL3 and pCMV6-Entry-Mecp2 (Flag-tagged MeCP2)/or pCMV6-Entry-Rcor1 (Flag-tagged CoREST) (both from OriGene Technologies, Rockville, Md.)/or pK7-HDAC1-GFP (Addgene). At 24 h after transfection, cells were treated with 1 μM UCN or 1.25 mM SB for another 24 h. Luciferase activity of cell lysates was determined luminometrically by the luciferase assay system (Promega, Madison, Wis.) as specified by the manufacturer. Luciferase activity was normalized to the protein content of the extracts. Relative luciferase activity was determined to reflect promoter activity of TH, expressed as the fold increase relative to the activity of control or untreated mock control.

[3] = tested on: VM precursor cultures; test: Immuno-cytochemistry and TH+ cell counting in VM precursor cultures; type: cell-based, rat
Method: Briefly, ventral mesencephalic tissues were dissected from E14.5 Sprague-Dawley (SD) rats, and then dissociated enzymatically (0.1% trypsin) and mechanically. Cells were seeded into 24-well (1×10^5/cm^2) culture plates pre-coated with 20 μg/mL poly-D-lysine (Sigma-Aldrich), and were maintained in 0.5 mL/well of minimum essential medium (MEM) supplemented with 10% fetal bovine serum (FBS), 10% horse serum (HS), 1 g/L glucose, 2 mM L-glutamine, 1 mM sodium pyruvate, 100 μM nonessential amino acids, 100 U/mL penicillin, and 100 μg/mL streptomycin (all purchased from Invitrogen). Cultures were maintained at 37° C. in a humidified atmosphere of 5% CO2 and 95% air. For DA neuron differentiation, VM precursor cultures, four hours after seeding, were switched to Dulbecco's Modified Eagle's Medium (DMEM)/Ham's F12 (1:1) containing N2 supplement (Invitrogen, Carlsbad, Calif.), penicillin and streptomycin. Immediately following the switch to DMEM/F12 medium, VM precursor cells were treated with various concentration of rat UCN (from Sigma-Aldrich, St. Louis, Mo.) for the indicated periods. For neutralization of endogenous UCN bioactivity, anti-UCN antibody (15 μg/mL) (Santa Cruz Biotechnology, Santa Cruz, Calif.) was added to the VM precursor cultures.
For immuno-cytochemistry, cells were fixed with 4% paraformaldehyde followed by blocking with PBS containing 0.4% Triton X-100, 3% normal goat serum and 2% bovine serum albumin (BSA) for 1 h at room temperature. After blocking, cells were incubated overnight at room temperature with primary antibodies. Primary antibodies were rabbit anti-UCN (1:200), mouse anti-TH (1:2000) (both from Sigma-Aldrich), goat anti-CRHR1 (1:100), rabbit anti-CRHR2 (1:250), rat anti-dopamine transporter (DAT, 1:200), chicken anti-MAP2 (1:5000) (all from Abcam, Cambridge, Mass.), rabbit anti-Nurr1 (1:100, Santa Cruz Biotechnology), mouse anti-Nurr1 (1:100, R&D Systems, Minneapolis, Minn.), rabbit anti-TH (1:1000), mouse anti-NeuN (1:200) (both from Chemicon, Temecula, Calif.), rabbit anti-acetyl-histone H3 (1:1000, Upstate Biotechnology, Lake Placid, N.Y.), rabbit anti-Foxa2 (1:500, Cell Signaling Technology), and rabbit anti-Pitx3 (1:100, Invitrogen).
For detection of dopaminergic neurons, the bound anti-TH antibody was visualized by incubation with an appropriate biotinylated secondary antibody followed by the Vectastain avidin-biotin-peroxidase (ABC) reagents (Vector Laboratories, Burlingame, Calif.) and color development with 3,3′-diaminobenzidine. The number of TH-positive neurons were counted in the entire surface area of a culture well or coverslip. For fluorescent double-labeling experiments, cells were incubated for 1 h at room temperature with rhodamine-conjugated donkey anti-mouse IgG (1:250), FITC-conjugated goat anti-rabbit IgG (1:250) or FITC-conjugated donkey anti-goat IgG (1:200) secondary antibodies (all from Jackson Immuno Research, West Grove, Pa.). Samples were counter-stained with Hoechst 33342 (5 μg/mL, Sigma-Aldrich) or DAPI (1 μg/mL), and mounted with 50% glycerol in PBS. Microscopic observations were done with a Zeiss Axiovert 200 M fluorescent microscope or a Zeiss LSM 510 META confocal imaging system (Carl Zeiss, Oberkochen, Germany). Immuno-reactive or Hoechst 33342-stained cells were counted in at least 10 random areas of each culture coverslip at a magnification of 100×.

[4] = SB, compared with the UCN effect

With Urocortin [UCN] as the compound, how does the “Nurr1 protein occupancy at the TH promoter” value ([1]; 1 μM UCN, 2 days) read?
Its value is “significantly increased”.

And the “CoREST binding in the TH promoter regions” value ([1]; UCN)?
The value was “decreased CoREST binding”.

And the “Foxa2 occupancy at Nurr1 binding sites of TH promoter” value ([1]; UCN)?
Its value is “increases”.

What about the “HDAC1 recruitment at the TH promoter” value ([1]; UCN) of the same compound?
The value was “significantly reduced”.

And the “histone H3 acetylation at TH promoter regions” value ([1]; UCN)?
The value was “significantly increased”.

And the “MeCP2 recruitment to the TH promoter” value ([1]; UCN, Nurr1-binding sites and repeated CpGs)?
Its value is “significantly reduced”.

And the “elicited TH promoter activity on forced MeCP2 or CoREST expression” value [2]?
The value was “attenuation”.

And the “TH promoter activity (relative luciferase activity)” value ([2]; 1 μM UCN)?
The value was “activation of the TH promoter”.

And the “elicited TH promoter activity on co-transfection with HDAC1” value [2]?
Its value is “significantly attenuated”.

What about the “number of TH+ neurons over time” value ([3]; 1 μM UCN as early as 1 day in vitro vs control medium at 4 days in vitro) of the same compound?
Its value is “clearly higher than that of control medium”.

What about the Nurr1-immuno-reactive intensity ([3]; 1 μM UCN, 2 to 3 days) of the same compound?
Its Nurr1-immuno-reactive intensity is “increased”.

And the “level of Foxa2 and Pitx3 in Nurr1+ cells” value ([3]; 1 μM UCN, 2 to 3 days)?
The value was “increased level”.

And the “TH+ cells co-expressing NeuN, MAP2 and DAT” value ([3]; 1 μM UCN, 4 days, double immuno-staining)?
Its value is “all the TH^+ cells”.

What about the “number of Nurr1+ cells” value ([3]; UCN treated cultures (control 4.91%±0.54%)) of the same compound?
Its value is 4.68%±0.4%.

And the “differentiation of Nurr1+/TH- precursors into Nurr1+/TH+ DA neurons” value ([3]; UCN vs control)?
Its value is “more Nurr1^+ cells develop concomitant TH^+ expression”.

What about the “numbers of TH+ cells” value ([3]; increasing doses of UCN, 3 days) of the same compound?
Its value is “dose-dependent increase”.

For `CCCC(=O)[O-].[Na+]` [SB, sodium butyrate, reference compound], which “Nurr1 recruitment at the TH promoter” value [1, 4] is on record?
Its value is “mimicked”.

And the “histone acetylation at the TH promoter” value [1, 4]?
The value was “mimicked”.

And the “elicited TH promoter activity on forced MeCP2 or CoREST expression” value [2]?
The value was “attenuation”.

And the TH promoter activity ([2]; 1.25 mM SB)?
The TH promoter activity was “increase TH promoter activity”.

What about the “elicited TH promoter activity on co-transfection with HDAC1” value [2] of the same compound?
The value was “significantly attenuated”.

And the “% TH+ cells out of total Nurr1+ cells (conversion of Nurr1+ precursors)” value ([3]; 1.25 mM SB, 3 days)?
Its value is “increased DA cell numbers was through conversion of Nurr1^+ precursors into DA neurons”.

And the “cells with TH staining” value ([3]; 1.25 mM SB, 3 days)?
Its value is “increase in cells with TH staining”.
